Assay results reported in US20070049593A1 (priority 2004, published 2007).
Structures can show the parent of a compound that is named as a salt.

target: T1, HCV polymerase (Hepatitis C virus genotype 1b, UniProt P26663); assay: biochemical; design: species or system HCV BK strain
T1 construct: a region encoding NS5B (J Virol 1991 March, 65(3), 1105-13, 544 amino acids after deletion of 47 amino acids on the C-terminal); 6xHis (C); made in house; host or cells: Escherichia coli
In short: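 His-tagged NS5B (BK strain, 47-aa C-terminal deletion, E. coli-expressed) at 0.5 μg/ml copied 5 μg/ml run-off RNA bearing the HCV 3′ UTR with 2 μM UTP plus [3H]UTP, 50 μM ATP/GTP, in pH 7.5 Tris with 5 mM MgCl2, 25 °C, 90 min. TCA-precipitated RNA was counted and IC50 calculated.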

T1 sequence (P26663 2420-2963): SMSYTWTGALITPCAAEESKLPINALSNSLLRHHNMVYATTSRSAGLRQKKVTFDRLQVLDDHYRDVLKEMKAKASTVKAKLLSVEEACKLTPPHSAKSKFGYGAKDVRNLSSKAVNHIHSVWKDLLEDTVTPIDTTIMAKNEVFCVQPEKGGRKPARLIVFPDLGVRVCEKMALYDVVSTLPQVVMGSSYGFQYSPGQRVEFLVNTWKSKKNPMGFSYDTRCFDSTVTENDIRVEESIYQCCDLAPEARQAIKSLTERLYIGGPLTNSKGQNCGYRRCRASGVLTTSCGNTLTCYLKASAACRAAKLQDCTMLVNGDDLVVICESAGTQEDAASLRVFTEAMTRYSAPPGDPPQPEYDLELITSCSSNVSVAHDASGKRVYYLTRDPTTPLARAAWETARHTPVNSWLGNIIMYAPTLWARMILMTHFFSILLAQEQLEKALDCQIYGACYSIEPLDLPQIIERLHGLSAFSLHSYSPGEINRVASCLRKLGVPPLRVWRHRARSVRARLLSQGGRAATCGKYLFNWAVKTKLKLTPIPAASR

Row | SMILES | IC50 [nM]
1 | O=C(O)c1ccc2c(C3CCCCC3)c3n(c2c1)CCOc1c(-c2ccccc2CCN2CCCCC2)cccc1-3 [Example 2-553, 12-cyclohexyl-4-{2-[2-(piperidin-1-yl)ethyl]phenyl}-6,7-dihydro-5-oxa-7a-azadibenzo[a,e]azulene-9-carboxylic acid monohydrochloride] | < 100
2 | O=C(O)c1ccc2c(C3CCCCC3)c3n(c2c1)CCOc1c(-c2ccccc2NCCN2CCCCC2)cccc1-3 [Example 2-554, 12-cyclohexyl-4-{2-[2-(piperidin-1-yl)ethylamino]phenyl}-6,7-dihydro-5-oxa-7a-azadibenzo[a,e]azulene-9-carboxylic acid dihydrochloride] | < 100
3 | CC(C)Oc1ccc2c(c1)OCCn1c-2c(C2CCCCC2)c2ccc(C(=O)O)cc21 [Example 2-555, 12-cyclohexyl-3-isopropoxy-6,7-dihydro-5-oxa-7a-azadibenzo[a,e]azulene-9-carboxylic acid] | < 100
4 | CC(C)Oc1ccc2c(c1)OCCn1c-2c(C2CCCCC2)c2ccc(C(=O)NC3(C(=O)Nc4ccc(/C=C/C(=O)O)cc4)CCC3)cc21 [Example 2-556, (E)-3-[4-({1-[(12-cyclohexyl-3-isopropoxy-6,7-dihydro-5-oxa-7a-azadibenzo[a,e]azulene-9-carbonyl)amino]cyclobutanecarbonyl}amino)phenyl]acrylic acid] | < 100
5 | CN(C)C(=O)C1Cn2c(c(C3CCCCC3)c3ccc(C(=O)O)cc32)-c2ccccc2O1 (stereo not shown) [Example 3-4, 12-cyclohexyl-6-dimethylcarbamoyl-6,7-dihydro-5-oxa-7a-azadibenzo[a,e]azulene-9-carboxylic acid] | < 100
6 | O=C(O)c1ccc2c(C3CCCCC3)c3n(c2c1)COc1ccccc1-3 [Example 4-2, 11-cyclohexyl-5-oxa-6a-azabenzo[a]fluorene-8-carboxylic acid] | 100 to 1000
7 | O=C(O)c1ccc2c(C3CCCCC3)c3n(c2c1)CCCc1ccccc1-3 [Example 5-2, 13-cyclohexyl-6,7-dihydro-5H-benzo[3,4]azepino[1,2-a]indole-10-carboxylic acid] | < 100
8 | O=C(O)c1ccc2c(C3CCCCC3)c3n(c2c1)Cc1ccccc1-3 [Example 5-3, 11-cyclohexyl-6H-isoindolo[2,1-a]indole-3-carboxylic acid] | 100 to 1000
9 | O=C(O)c1ccc2c(C3CCCCC3)c3n(c2c1)CCc1ccccc1-3 [Example 5-4, 12-cyclohexyl-5,6-dihydroindolo[2,1-a]isoquinoline-9-carboxylic acid] | 100 to 1000
10 | O=C(O)c1ccc2c(C3CCCCC3)c3n(c2c1)C(O)c1ccccc1-3 (stereo not shown) [Example 5-6, 11-cyclohexyl-6-hydroxy-6H-isoindolo[2,1-a]indole-3-carboxylic acid] | 100 to 1000
11 | O=C(O)c1ccc2c(C3CCCCC3)c3n(c2c1)CCCn1cccc1-3 [Example 6-2, 13-cyclohexyl-6,7-dihydro-5H-pyrrolo[2′,1′:3,4][1,4]diazepino[1,2-a]indole-10-carboxylic acid] | 100 to 1000
12 | O=C(O)c1ccc2c(C3CCCCC3)c3n(c2n1)CCOc1cc(OCc2cc(N4CCCC4=O)ccc2N2CCOCC2)ccc1-3 [Example 7-4, 12-cyclohexyl-3-[2-(morpholin-4-yl)-5-(2-oxopyrrolidin-1-yl)benzyloxy]-6,7-dihydro-5-oxa-7a,8-diazadibenzo[a,e]azulene-9-carboxylic acid dihydrochloride] | < 100
13 | CS(=O)(=O)c1ccc(N2CCOCC2)c(COc2ccc3c(c2)OCCn2c-3c(C3CCCCC3)c3ccc(C(=O)O)nc32)c1 [Example 7-5, 12-cyclohexyl-3-[5-methanesulfonyl-2-(morpholin-4-yl)benzyloxy]-6,7-dihydro-5-oxa-7a,8-diazadibenzo[a,e]azulene-9-carboxylic acid monohydrochloride] | < 100
14 | CC(=O)N(C)c1ccc(N2CCOCC2)c(COc2ccc3c(c2)OCCn2c-3c(C3CCCCC3)c3ccc(C(=O)O)nc32)c1 [Example 7-6, 3-[5-(N-acetyl-N-methylamino)-2-(morpholin-4-yl)benzyloxy]-12-cyclohexyl-6,7-dihydro-5-oxa-7a,8-diazadibenzo[a,e]azulene-9-carboxylic acid dihydrochloride] | < 100
15 | CS(=O)(=O)N1CCN(c2ccc(N3CCCC3=O)cc2COc2ccc3c(c2)OCCn2c-3c(C3CCCCC3)c3ccc(C(=O)O)nc32)CC1 [Example 7-7, 12-cyclohexyl-3-[2-(4-methanesulfonylpiperazin-1-yl)-5-(2-oxopyrrolidin-1-yl)benzyloxy]-6,7-dihydro-5-oxa-7a,8-diazadibenzo[a,e]azulene-9-carboxylic acid dihydrochloride] | < 100
16 | O=C(O)c1ccc2c(C3CCCCC3)c3n(c2n1)CCOc1cc(OCc2ccccc2)ccc1-3 [Example 7-8, 3-benzyloxy-12-cyclohexyl-6,7-dihydro-5-oxa-7a,8-diazadibenzo[a,e]azulene-9-carboxylic acid] | < 100

Row | SMILES | IC50 [nM]
17 | COc1ccc2c(c1)OCCn1c-2c(C2CCCCC2)c2ccc(C(=O)O)nc21 [Example 7-9, 12-cyclohexyl-3-methoxy-6,7-dihydro-5-oxa-7a,8-diazadibenzo[a,e]azulene-9-carboxylic acid] | < 100
18 | COc1ccc2c(c1)OCCn1c-2c(C2CCCCC2)c2ccc(C(=O)NC3(C(=O)Nc4ccc(/C=C/C(=O)O)cc4)CCC3)nc21 [Example 7-10, (E)-3-[4-({1-[(12-cyclohexyl-3-methoxy-6,7-dihydro-5-oxa-7a,8-diazadibenzo[a,e]azulene-9-carbonyl)amino]cyclobutanecarbonyl}amino)phenyl]acrylic acid] | < 100
19 | O=C(O)c1ccc2c(C3CCCCC3)c3n(c2n1)CCN(CC(=O)N1CCOCC1)c1ccccc1-3 [Example 8-4, 12-cyclohexyl-5-[2-oxo-2-(morpholin-4-yl)ethyl]-6,7-dihydro-5H-5,7a,8-triazadibenzo[a,e]azulene-9-carboxylic acid dihydrochloride] | < 100
20 | O=C(O)c1ccc2c(C3CCCCC3)c3n(c2n1)CCN(CCN1CCCCC1)c1cc(Cl)ccc1-3 [Example 8-5, 3-chloro-12-cyclohexyl-5-(2-piperidin-1-ylethyl)-6,7-dihydro-5H-5,7a,8-triazadibenzo[a,e]azulene-9-carboxylic acid trihydrochloride] | < 100
21 | CCN1CCN(CCN2CCn3c(c(C4CCCCC4)c4ccc(C(=O)O)nc43)-c3ccc(Cl)cc32)CC1 [Example 8-6, 3-chloro-12-cyclohexyl-5-[2-(4-ethylpiperazin-1-yl)ethyl]-6,7-dihydro-5H-5,7a,8-triazadibenzo[a,e]azulene-9-carboxylic acid trihydrochloride] | < 100
22 | O=C(O)c1ccc2c(C3CCCCC3)c3n(c2c1)CCCN(CCN1CCCCC1)c1cc(Cl)ccc1-3 [Example 8-7, 3-chloro-14-cyclohexyl-5-[2-(piperidin-1-yl)ethyl]-5,6,7,8-tetrahydrobenzo[6,7][1,5]diazocino[8,1-a]indole-11-carboxylic acid dihydrochloride] | < 100
23 | Cc1ccc2c(c1)N(C)CCn1c-2c(C2CCCCC2)c2ccc(C(=O)O)nc21 [Example 8-8, 12-cyclohexyl-3,5-dimethyl-6,7-dihydro-5H-5,7a,8-triazadibenzo[a,e]azulene-9-carboxylic acid] | 100 to 1000
24 | Cc1ccc2c(c1)N(C)CCn1c-2c(C2CCCCC2)c2ccc(C(=O)NC3(C(=O)Nc4ccc(/C=C/C(=O)O)cc4)CCC3)nc21 [Example 8-9, (E)-3-[4-({1-[(12-cyclohexyl-3,5-dimethyl-6,7-dihydro-5H-5,7a,8-triazadibenzo[a,e]azulene-9-carbonyl)amino]cyclobutanecarbonyl}amino)phenyl]acrylic acid] | < 100
25 | O=C(O)c1ccc2c(C3CCCCC3)c3n(c2c1)CCOc1ccccc1-3 [Example 9-2, 12-cyclohexyl-6,7-dihydro-5-oxa-7a-azadibenzo[a,e]azulene-9-carboxylic acid] | < 100
26 | O=C(O)c1ccc2c(C3CCCCC3)c3n(c2c1)CCOc1cc(Cl)ccc1-3 [Example 9-4, 3-chloro-12-cyclohexyl-6,7-dihydro-5-oxa-7a-azadibenzo[a,e]azulene-9-carboxylic acid] | < 100
27 | O=C(O)c1ccc2c(c1)c1c(n2C2CCCCC2)-c2ccc(Cl)cc2N(CCN2CCCCC2)CC1 [Example 10-1, 3-chloro-12-cyclohexyl-5-[2-(piperidin-1-yl)ethyl]-5,6,7,12-tetrahydrobenzo[2,3]azepino[4,5-b]indole-9-carboxylic acid] | < 100
28 | NC(=O)c1ccc2c(c1)c1c(n2C2CCCCC2)-c2ccc(Cl)cc2N(CCN2CCCCC2)CC1 [Example 10-3, 3-chloro-12-cyclohexyl-5-[2-(piperidin-1-yl)ethyl]-5,6,7,12-tetrahydrobenzo[2,3]azepino[4,5-b]indole-9-carboxamide] | < 100
29 | O=C(O)c1ccc2c(c1)c1c(n2C2CCCCC2)-c2ccccc2N(CCN2CCCCC2)CC1 [Example 10-4, 12-cyclohexyl-5-[2-(piperidin-1-yl)ethyl]-5,6,7,12-tetrahydrobenzo[2,3]azepino[4,5-b]indole-9-carboxylic acid] | 100 to 1000
30 | CN1CCn2c(c(C3CCCCC3)c3ccc(C(=O)O)cc32)-c2ccccc2C1 [Example 11-1, 14-cyclohexyl-6-methyl-5,6,7,8-tetrahydrobenzo[6,7][1,4]diazocino[8,1-a]indole-11-carboxylic acid monohydrochloride] | < 100
31 | COc1ccc2c(c1)CN(C(=O)OC(C)(C)C)CCn1c-2c(C2CCCCC2)c2ccc(C(=O)O)cc21 [Example 11-4, 6-tert-butoxycarbonyl-14-cyclohexyl-3-methoxy-5,6,7,8-tetrahydrobenzo[6,7][1,4]diazocino[8,1-a]indole-11-carboxylic acid] | < 100
